The text below walks through data of patent US8232269B2, “Amide compounds useful in therapy” (Pfizer Inc., priority 2008, dated 2012).

Molecules are shown by their SMILES.

The test deals with T1, Progesterone Receptor (PR) (Homo sapiens, UniProt P06401).
T1 construct: endogenous in cells; host or cells: T47D human breast mammary carcinoma cells
T1 sequence (P06401 1-933): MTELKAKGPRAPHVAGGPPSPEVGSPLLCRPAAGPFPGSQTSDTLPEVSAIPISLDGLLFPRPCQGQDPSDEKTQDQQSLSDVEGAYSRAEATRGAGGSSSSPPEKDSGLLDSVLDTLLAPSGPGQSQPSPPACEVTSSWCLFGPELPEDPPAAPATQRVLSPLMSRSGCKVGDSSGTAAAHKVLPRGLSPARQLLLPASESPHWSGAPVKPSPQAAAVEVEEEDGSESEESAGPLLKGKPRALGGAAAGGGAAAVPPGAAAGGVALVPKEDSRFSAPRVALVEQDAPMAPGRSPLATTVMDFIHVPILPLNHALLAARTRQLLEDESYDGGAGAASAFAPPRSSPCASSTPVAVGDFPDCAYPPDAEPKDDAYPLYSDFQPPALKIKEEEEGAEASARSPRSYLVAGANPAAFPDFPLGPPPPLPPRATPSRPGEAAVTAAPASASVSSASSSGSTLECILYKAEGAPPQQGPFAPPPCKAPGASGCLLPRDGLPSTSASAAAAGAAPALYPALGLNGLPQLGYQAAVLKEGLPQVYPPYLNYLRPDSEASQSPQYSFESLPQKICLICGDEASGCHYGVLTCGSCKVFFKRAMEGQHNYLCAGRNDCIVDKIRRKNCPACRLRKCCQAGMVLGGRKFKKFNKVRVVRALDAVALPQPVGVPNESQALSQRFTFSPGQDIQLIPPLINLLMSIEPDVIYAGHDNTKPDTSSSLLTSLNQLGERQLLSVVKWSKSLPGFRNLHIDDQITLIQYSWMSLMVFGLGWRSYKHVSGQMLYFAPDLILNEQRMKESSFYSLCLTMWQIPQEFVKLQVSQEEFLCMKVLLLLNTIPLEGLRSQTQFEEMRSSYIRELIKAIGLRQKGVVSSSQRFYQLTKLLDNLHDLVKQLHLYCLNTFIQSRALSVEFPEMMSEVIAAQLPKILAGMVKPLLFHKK
Put plainly: In vitro functional assay for progesterone receptor (PR) antagonists: inhibition of progesterone-induced alkaline phosphatase expression in T47D cells. Type of test: cell-based. The note with it: antagonist format, 5 nM progesterone, Ki calculated from IC50 with the Cheng-Prusoff equation. The text has this:
1.0 In vitro Functional Assay for Progesterone Receptor (PR) Antagonists, Agonists and Modulators
The assay for PR antagonism takes advantage of the extensively reported modulation of alkaline phosphatase (AP) expression in human breast T47D mammary carcinoma cells {Beck et al., D. P. (1993). The progesterone antagonist RU486 acquires agonist activity upon stimulation of cAMP signalling pathways. Proc Natl Acad Sci USA 90, 4441-4445; Fensome et al. (2002). New progesterone receptor antagonists: 3,3-disubstituted-5-aryloxindoles. Bioorg Med Chem Lett 12, 3487-3490; Zhang et al., (2002a). 6-Aryl-1,4-dihydro-benzo d1,3oxazin-2-ones: a novel class of potent, selective, and orally active nonsteroidal progesterone receptor antagonists. Journal of Medicinal Chemistry 45, 4379-4382; Zhang et al., (2003). Novel 6-aryl-1,4-dihydrobenzo d oxazine-2-thiones as potent, selective, and orally active nonsteroidal progesterone receptor agonists. Bioorganic & Medicinal Chemistry Letters 13, 1313-1316; Zhang et al., (2002b). Potent nonsteroidal progesterone receptor agonists: synthesis and SAR study of 6-aryl benzoxazines. Bioorganic & Medicinal Chemistry Letters 12, 787-790; Zhang, Z. et al., (2000). In vitro characterization of trimegestone: a new potent and selective progestin. Steroids 65, 637-643}. […] In the absence of progesterone any agonist activity is also observed as an induction of AP activity. By running the assay in two formats (+/−progesterone (P4)), compounds behaving as PR antagonists, agonists, partial agonists or modulators with mixed agonist/antagonist activity can be identified.
Briefly, T47D cells are grown by propagating in DMEM with phenol red+10% FCS+2 mM Glutamine at 37° C./5% CO2. At 70-80% confluence, the media is exchanged for phenol red free DMEM+5% CS-FCS (Assay media). Cells are incubated overnight in assay media then harvested and frozen in assay media containing 10% DMSO at 1.5e7 cells/mL in 2 mL aliquots using a Planer and immediately stored in liquid nitrogen. Vials are removed from liquid nitrogen storage and immediately thawed in a water bath at 37° C. The cell suspension is added dropwise to 20 mL of assay media, then the tube centrifuged at 1000 rpm for 4 minutes, the supernatant is discarded and the pellet re-suspended in 20 mL assay media. T47D cells are then plated at 8750 cells/well in 35 μL assay media in sufficient white solid 384 well TC plates for the assay. For the agonist format assay a further 10 μL of assay media is added to each well. These plates are then cultured for 3-6 hours at 37° C./5% CO2 before compound addition.
Test substances are prepared by in 100% DMSO, half log concentrations from 4 mM in 384 well plates 5 μL/well (referred to here as ‘grandmother plates’). Progesterone is 100 μM made up in ethanol and PBS (i.e. add 1 mL ethanol to progesterone initially to help dissolving) and stored in 0.5-1 mL aliquots at −20° C.
Using a multidrop (Thermolabsystems), 60 μL/well of buffer is added to a 384 well plate—this will be the ‘mother plate’. _Add 45 μL well buffer to grandmother plate using the multidrop (=400 μM 10% DMSO dilution). Mixed and spun to remove air bubbles. • 20 μL is taken from the grandmother plate (400 μM 10% DMSO) and added to the mother plate (=100 μM 2.5% DMSO). Mixed and spun to remove air bubbles Preparation of Max/Min:
Antagonist Min: (Checker Pattern on Plate Map) 1 μM RU-486 (FAC 0.1 μM) • 50 μL of 0.2 mM RU-486 • 10 mL Diluent Addition of Test Substance to Cell Plates • The PlateMate Plus was used to add 5 μL MAX/MIN to cell plates • Then 5 μL test substances are added from the mother plate (after removing max/min PlateMate tips: columns 1 and 24)
Addition of Agonist (5 nM Progesterone FAC) for Antagonist Format Only
25 nM progesterone in assay media is prepared from 100 μM stock (12.5 μL progesterone/50 mL media), from which 10 μL per well is transferred to the assay plate using the PlateMate Plus (already containing cells & compound). […]
What is called Ki is the equilibrium dissociation constant of an inhibitor or competing ligand from its target. `CC(C)n1nc(-c2ccc(C#N)cc2)c(C2CC2)c1C(=O)NCc1cnn(C)c1` [Example 30, 3-(4-Cyanophenyl)-4-cyclopropyl-1-isopropyl-N-[(1-methyl-1H-pyrazol-4-yl)methyl]-1H-pyrazole-5-carboxamide]: the Ki was 30.9 nM.

On to `Cc1cc(-c2nn(C(C)C)c(C(=O)NCC(C)(C)O)c2C)ccc1C#N` [Example 68, 3-(4-Cyano-3-methylphenyl)-N-(2-hydroxy-2-methylpropyl)-1-isopropyl-4-methyl-1H-pyrazole-5-carboxamide], for which the inhibitory constant (Ki) is 6.38 nM.

With `Cc1c(-c2ccc(C#N)cc2)nn(C2CCC2)c1C(=O)NC1CC1` [Example 71, 3-(4-Cyanophenyl)-1-cyclobutyl-N-cyclopropyl-4-methyl-1H-pyrazole-5-carboxamide], the inhibitory constant (Ki) was 8.25 nM.

On to `CCC(=O)N1CCC(NC(=O)c2c(C3CC3)c(-c3ccc(C#N)cc3)nn2C(C)C)C1` (stereo in doubt) [Example 12, 3-(4-Cyanophenyl)-4-cyclopropyl-1-isopropyl-N-[(3S)-1-propionylpyrrolidin-3-yl]-1H-pyrazole-5-carboxamide], for which the Ki is 17.2 nM.

In the case of `CCNC(=O)c1c(C)c(-c2ccc(C#N)cc2)nn1C1CC1` [Example 83, 3-(4-Cyanophenyl)-1-cyclopropyl-N-ethyl-4-methyl-1H-pyrazole-5-carboxamide], the Ki is 96.5 nM.

Take `CC(C)n1nc(-c2ccc(C#N)cc2)c(C2CC2)c1C(=O)N[C@@H]1CC[C@H](O)C1` [Example 31, 3-(4-Cyanophenyl)-4-cyclopropyl-N-[(1R,3S)-3-hydroxycyclopentyl]-1-isopropyl-1H-pyrazole-5-carboxamide]: the inhibition constant Ki is 36.3 nM.

Consider `CNC(=O)c1c(C#N)c(-c2ccc(C#N)c(C)c2)nn1C(C)C` [Example 122], for which the Ki is 5.18 nM.

`CC(C)n1nc(-c2ccc(C#N)cc2)c(C2CC2)c1C(=O)NC[C@H](C)O` [Example 2, 3-(4-Cyano-phenyl)-4-cyclopropyl-N-[(2S)-2-hydroxypropyl]-1-isopropyl-1H-pyrazole-5-carboxamide]: the Ki is 9.39 nM.

As for `CCc1c(-c2ccc(C#N)cc2)nn(C(C)CC)c1C(=O)NCC(C)(C)O` (single isomer, unassigned) [Example 106 Ent 1, 1-sec-Butyl-3-(4-cyanophenyl)-4-ethyl-N-(2-hydroxy-2-methylpropyl)-1H-pyrazole-5-carboxamide], the Ki was 14.8 nM.

In the case of `CNC(=O)c1c(C)c(-c2ccc(C#N)cc2)nn1C1CCC1` [Example 70, 3-(4-Cyanophenyl)-1-cyclobutyl-N,4-dimethyl-1H-pyrazole-5-carboxamide], the inhibition constant Ki is 5.51 nM.

On to `CC(C)n1nc(-c2ccc(C#N)cc2)c(C2CC2)c1C(=O)NC(C)(C)C` [Example 60, N-tert-Butyl-3-(4-cyanophenyl)-4-cyclopropyl-1-isopropyl-1H-pyrazole-5-carboxamide], for which the inhibitory constant (Ki) is 42.1 nM.

With `CC(C)NC(=O)c1c(C#N)c(-c2ccc(C#N)cc2)nn1C(C)C` [Example 91, 4-Cyano-3-(4-cyanophenyl)-N,1-diisopropyl-1H-pyrazole-5-carboxamide], the inhibition constant (Ki) is 6.48 nM.

Turning to `Cc1cc(-c2nn(C(C)C)c(C(=O)NC3CC3)c2C)ccc1C#N` [Example 67, 3-(4-Cyano-3-methylphenyl)-N-cyclopropyl-1-isopropyl-4-methyl-1H-pyrazole-5-carboxamide], the inhibitory constant (Ki) is 4.4 nM.

With `CC(C)n1nc(-c2ccc(C#N)cc2)c(C2CC2)c1C(=O)NC[C@@H](C)O` [Example 3, 3-(4-Cyano-phenyl)-4-cyclopropyl-N-[(2R)-2-hydroxypropyl]-1-isopropyl-1H-pyrazole-5-carboxamide], the Ki was 13.9 nM.

As to `CCNC(=O)c1c(C)c(-c2ccc(C#N)cc2)nn1C1CCOC1` (single isomer, unassigned) [Example 76 Ent 1, 3-(4-Cyanophenyl)-N-ethyl-4-methyl-1-(tetrahydrofuran-3-yl)-1H-pyrazole-5-carboxamide], the inhibition constant (Ki) was 22.3 nM.

Take `Cc1cc(-c2nn(C(C)C)c(C(=O)NC3CC3)c2C#N)ccc1C#N` [Example 121]: the Ki was 5.06 nM.
